These results are taken from patent US8633025B2, “Generation of neuronal cells from embryonic stem cells” (Universite Libre de Bruxelles, priority 2007, dated 2014).

Experiment [1] concerns ES cell-derived neurons. The experiment in a line: Whole-cell patch clamp recording of spontaneous post-synaptic currents. The experiment is classed as cell-based, mouse. The note with it: for Inhibition of recorded ePSCs: NBQX 5 μM and APV 50 μM. The protocol: Electrophysiological recordings were performed at room temperature (20-25° C.) in an external solution (ACSF) containing 120 mM NaCl, 26 mM NaHCO3, 11 mM D-glucose, 2 mM KCl, 2 mM CaCl2, 1.2 mM MgSO4 and 1.2 mM KH2PO4 with an osmolarity of 290 mOsm. The recording chamber was constantly superfused at a flow rate of 1 ml/min. […] Both pipette solutions were adjusted to pH 7.3 and 300-330 mOsm/l. Whole-cell patch clamp recordings were carried out with an EPC10 amplifier (HEKA, Elektronik, Lambrecht/Pfalz, Germany) in voltage clamp mode. Signals were filtered at 4 kHz using the built-in filter of EPC10 and digitally sampled at 20 kHz except spontaneous postsynaptic currents signals that were filtered at 2.5 kHz and digitally sampled at 5 kHz. Voltage protocol generation, data acquisition and analysis were made with Pulse 8.65 (HEKA, Elektronik, Lambrecht/Pfalz, Germany). The presence of spontaneous excitatory postsynaptic currents (sEPSCs) was assessed by clamping neurons to −60 mV in the presence of 100 μM picrotoxin. The presence of spontaneous inhibitory postsynaptic currents (sIPSCs) was assessed by clamping neurons to […] in the presence of 1 μM TTX, 5 μM 2,3-dioxo-6-nitro-1,2,3,4-tetrahydrobenzo[f]quinoxaline-7-sulfonamide disodium salt (NBQX) and 50 μM D-(−)-2-amino-5-phosphonopentanoic acid (APV). To further check the nature of spontaneous postsynaptic currents, NBQX (5 μM) and APV (50 μM) were used to block AMPA and NMDA receptors respectively and picrotoxin (100 μM) was used to block GABAA receptors. Fifteen neurons were recorded for each type of PSC and for each condition (DDM or DDM+cyclo).
In general terms: The patch-clamp technique gives a direct electrical read-out from membranes.

The subject of experiment [2] is ES cell-derived neurons. The experiment can be described thus: Slice overlay assay on postnatal cortical slices, radial orientation. It is filed as cell-based. The note with it: 21 days of differentiation, four days after plating on mouse postnatal cortical slices.
The subject of another experiment is ES cells. The experiment in a line: Regional identity markers among Nestin-positive neural progenitors from ES cells differentiated in DDM+cyclo (immunofluorescence). It is filed as cell-based, mouse. The protocol:
Similar results were obtained with several ES cell lines, including distinct derivatives of E14 and J1 cells. ES cells were trypsinised, dissociated and plated at a density of 5×10^3 cells/cm^2 on gelatin-coated cell culture plastic dishes in ES medium. When needed, the cells were plated for 15-30 minutes on gelatin coated-dishes, to let the MEFS adhere and the supernatant containing ES cells only was recovered and subsequently replated on gelatin coated dishes. After adhesion, medium was changed to “Default Differentiation Medium” (DDM). DDM consists of DMEM/F12 (Invitrogen-Gibco) supplemented with 1×N2 supplement (100×N2 supplement consists of 8.61 μM insulin, 1 mM transferrin, 2 μM progesterone, 10.01 mM putrescine and 3.01 μM selenite; Invitrogen-Gibco), 2 mM glutamine (Invitrogen-Gibco), 1×MEM-nonessential amino acids (Invitrogen-Gibco), 1 mM sodium pyruvate (Invitrogen-Gibco), 110 μM beta-mercaptoethanol (Sigma) and 0.5 mg/ml Bovine Serum Albumine, Fraction V (Invitrogen-Gibco). Medium was changed every two days.
(§1) Medium was removed and cells were rinsed with PBS then fixed for 30 min in 4% paraformaldehyde (PFA) in PBS, pH 7.4 at 4° C. PFA was removed and cells were rinsed three times with PBS. Blocking of unspecific antibody activity and permeabilization was done in PBS supplemented with 5% horse serum (Invitrogen-Gibco), 3% bovine serum albumin (Sigma) and 0.3% Triton X-100 (Sigma). Incubation with primary antibodies was done in PBS supplemented with 1% horse serum, 3% bovine serum albumin and 0.1% Triton X-100 overnight at 4° C. Cells were rinsed three times with PBS and incubated with secondary antibodies in PBS supplemented with 1% horse serum, 3% bovine serum albumin and 0.1% Triton X-100 for one hour at room temperature then rinsed again three times with PBS. For double or multiple immunostaining, the process was repeated. Nuclei were stained with bisbenzimide (Hoechst#33258; Sigma) and coverslips were mounted with glycergel (DAKO). For some antibodies, antigen retrieval was used before blocking: cells were boiled during 4×5 minutes in 10 mM citrate buffer (pH 6.0) and cooled down to room temperature during 20 minutes.
(§2) For quantification of the proportion of cells expressing a specific marker (differentiation markers, region-specific markers, neurotransmitter transporter proteins or layer-specific markers), at least 300 cells from 3 independent experiments (at least 100 cells from each experiment) were counted for each time-point studied.
(§3) Experimental procedures were as described in Example 1. […] Ethanol was used as control.

For experiment [3], the system named is ES cell-derived neural progenitors. The following applies: short BrdU pulse. The protocol: as §3
For long term pulse chase experiments, BrdU (Becton Dickinson) was added to the differentiation medium on the different days during 24 h at a final concentration of 10 μM. Cells were dissociated after 21 days of differentiation and plated on coated coverslips for an additional day. For short-term BrdU uptake experiments, BrdU was added to the differentiation medium during 1 hour prior to cell dissociation and replating.
For BrdU detection, medium was removed and cells were rinsed with PBS then fixed for 30 min in 4% paraformaldehyde (PFA) in PBS, pH 7.4 at 4° C. PFA was removed and cells were rinsed three times with PBS. BrdU was unmasked using an antigen retrieval method: cells were boiled during 4×5 minutes in 10 mM citrate buffer (pH 6.0) and cooled down to room temperature during 20 minutes. Immunostaining was performed as described above using mouse anti-BrdU (1/50, Becton Dickinson) or rat anti-BrdU (1/250, Abcam) antibodies. Multiple labelling was performed sequentially as described above.

Experiment [4] has as its system ES cell-derived neurons. The experiment in a line: Morphology and Pyramidal Morphology Index (PMI) of MAP2-positive neurons. It is filed as cell-based, mouse. The source says: Pictures of at least 100 neurons stained for MAP2 were to taken randomly for each condition and from two different experiments and the quantification was done blindly in Adobe Photoshop Software using a 25 μm circle drawn on a superposed layer.

Experiment [5] relates to ES cell-derived neurons. The experiment in a line: Neurotransmission markers among Tuj1-positive neurons derived from ES cells (immunofluorescence). The note with it: of Tuj1-positive cells after 28 days of differentiation. It is filed as cell-based, mouse. The protocol: Similar results were obtained with several ES cell lines, including distinct derivatives of E14 and J1 cells. ES cells were trypsinised, dissociated and plated at a density of 5×10^3 cells/cm^2 on gelatin-coated cell culture plastic dishes in ES medium. When needed, the cells were plated for 15-30 minutes on gelatin coated-dishes, to let the MEFS adhere and the supernatant containing ES cells only was recovered and subsequently replated on gelatin coated dishes. After adhesion, medium was changed to “Default Differentiation Medium” (DDM). DDM consists of DMEM/F12 (Invitrogen-Gibco) supplemented with 1×N2 supplement (100×N2 supplement consists of 8.61 μM insulin, 1 mM transferrin, 2 μM progesterone, 10.01 mM putrescine and 3.01 μM selenite; Invitrogen-Gibco), 2 mM glutamine (Invitrogen-Gibco), 1×MEM-nonessential amino acids (Invitrogen-Gibco), 1 mM sodium pyruvate (Invitrogen-Gibco), 110 μM beta-mercaptoethanol (Sigma) and 0.5 mg/ml Bovine Serum Albumine, Fraction V (Invitrogen-Gibco). Medium was changed every two days. […]
For quantification of the proportion of cells expressing a specific marker (differentiation markers, region-specific markers, neurotransmitter transporter proteins or layer-specific markers), at least 300 cells from 3 independent experiments (at least 100 cells from each experiment) were counted for each time-point studied. […]

The subject of experiment [6] is ES cell-derived neurons. The experiment can be described thus: Layer-specific cortical markers among Tuj1+ neurons (immunofluorescence). It is filed as cell-based, mouse. The note with it: of all Tuj1+ neurons, days 16-21. The protocol:
as §1, with “Nuclei were stained with bisbenzimide (Hoechst#33258; Sigma) and coverslips were mounted with glycergel (DAKO).” left out
as §2
We studied the expression of the following layer-specific markers corresponding to the major subtypes of cortical neurons generated in vivo in the mouse, including: Tbr1 and reelin for preplate neurons and Cajal-Retzius cells; Tle4, Tbr1, CTIP2, Otx1, Er81, FoxP2 for deep ([…]) layer neurons; Satb2 and Cux1 for upper (II/III/IV) layer neurons and callosal projection neurons of layer V (see FIG. 5).

The subject of experiment [7] is ES cell-derived neural progenitors. The experiment can be described thus: Regional markers among Nestin-positive progenitors after DDM+Shh or DDM+Dkk. It is filed as cell-based, mouse. The note with it: 14 days. The protocol: FIG. 12 illustrates that neural progenitors and neurons of ventral telencephalic identity (including cortical interneurons, striatal interneurons, striatal projections neurons) can be generated from ES cells following DDM+Shh (at 1-10 μM) or DDM+DDK Wnt inhibitor (at 100-300 ng/ml), or a combination of both (at 1 μM/100 ng/ml respectively). (A) Proportion of Nestin positive neural progenitors expressing specific neural regionalization markers following 14 days of differentiation in DDM or DDM+Shh or DDM+DKK. (B), (C) Proportion of VgluT1, VgluT2 and vGAT, and reelin, Tbr1, Isl1 among Tuj1 positive neurons after 21 days of differentiation in DDM alone or DDM+Shh or DDM+DKK, or DDM+Shh/DKK.
To increase the proportion of ventral character of the ES cell-derived neural progenitors, we chose to increase Shh signalling, by adding soluble recombinant Shh to DDM, or to antagonize dorsalizing Wnt-signalling, by adding Dickkopf-1 (Dkk), a soluble antagonist of the Wnt pathway.

[8] abbreviates: neurons after 28 days following differentiation in DDM.
Setting [9] is: cyclopamine 1 μM day 2 to day 10, 14 days, of Nestin-positive cells.

As to picrotoxin, in the experiment on ES cell-derived neurons [1] (neurons after 28 days following differentiation in DDM, picrotoxin 100 μM), the “Inhibition of recorded iPSCs” value is reported as “selective inhibition”.
Consider `N[C@H](CCCP(=O)(O)O)C(=O)O` [APV, D-(−)-2-amino-5-phosphonopentanoic acid], for which the “Inhibition of recorded ePSCs” value in the experiment with ES cell-derived neurons [1] (setting [8]) is reported as “selective inhibition”.
With “2,3-dioxo-6-nitro-1,2,3,4-tetrahydrobenzo[f]quinoxaline-7-sulfonamide disodium salt [NBQX]”, the “Inhibition of recorded ePSCs” value with ES cell-derived neurons [1] (setting [8]) is listed as “selective inhibition”.
`CC1=C2C[C@H]3[C@@H](CC=C4C[C@@H](O)CC[C@@]43C)[C@@H]2CC[C@]12O[C@@H]1C[C@H](C)CN[C@H]1[C@H]2C` [cyclopamine]: the “Neurons displaying a radial orientation” value in the experiment on ES cell-derived neurons [2] is 64.98+/−2.40%. In the experiment on ES cells (cyclopamine 1 μM day 2 to day 10, 14 days of differentiation, of Nestin-positive cells), the “Otx1-2 positive neural progenitors” value is recorded as 75.57+/−1.21%. Further, in the experiment on ES cells (setting [9]), the “Gsh2 expression among neural progenitors” value is given as 1.37+/−0.61%, the “Nkx2.1 expression among neural progenitors” value is 1.87+/−1.10%, the “Nkx2.2 expression among neural progenitors” value was 4.05+/−1.10% and the “Otx1 expression among neural progenitors” value was 71.21+/−2.52%. In addition, in the experiment on ES cells (setting [9]), the “Pax6 expression among neural progenitors” value is on record as 73.03+/−2.44%. Moreover, the “Effect on the neuralization process (pattern of pan-neural markers)” value in the experiment with ES cells (different time points, compared with DDM without cyclopamine) is “did not change significantly”. In addition, in experiment [3] (day 10), the “BrdU labelled neural progenitors, day 10” value is 42.11+/−3.42%. Besides, in experiment [3] (day 14), the “BrdU labelled neural progenitors, day 14” value was 28.57+/−2.00%. Further, in the experiment on ES cell-derived neurons [4] (cut-off 1.2 μm, of MAP2-positive neurons after 28 days of differentiation), the “Neurons with PMI superior to the cut-off value” is listed as 77.23+/−4.17%. Besides, in the experiment on ES cell-derived neurons [4] (p<0.001, Mann-Whitney test), the “PMI compared with DDM conditions” value is listed as “significantly higher PMI”. Further, the “Neurons showing a unipolar morphology” value with ES cell-derived neurons [4] (semi-quantitative scoring, MAP2-positive neurons, 28 days) is given as 61.39+/−4.84%. In addition, in the experiment with ES cell-derived neurons [5], the VGluT1 expressing neurons is 70.04+/−2.98% and the VGluT2 expressing neurons is 15.46+/−2.52%. Further, in the experiment on ES cell-derived neurons [1], the “GABAergic inhibitory post-synaptic currents (iPSCs) recorded” value was “no or little iPSCs could be recorded” and the “Neurons displaying glutamatergic excitatory post-synaptic currents (ePSCs)” value is on record as 38.89+/−11.49%. Besides, in the experiment with ES cell-derived neurons [6], the CTIP2 expressing neurons was 36.01+/−1.52%, the Cux1 expressing neurons was 10.56+/−0.80%, the Otx1 expressing neurons is listed as 15.42+/−1.06% and the Satb2 expressing neurons is on record as 7.60+/−0.78%. Moreover, in the experiment on ES cell-derived neurons [6], the Tbr1 expressing neurons was 38.14+/−1.54% and the reelin expressing neurons is recorded as 21.18+/−1.28%.

B1: Dkk: Dickkopf-1 (Dkk), a soluble antagonist of the Wnt pathway (protein, UniProt O94907 32-266, looked up)
Dickkopf-related protein 1: TLNSVLNSNAIKNLPPPLGGAAGHPGSAVSAAPGILYPGGNKYQTIDNYQPYPCAEDEECGTDEYCASPTRGGDAGVQICLACRKRRKRCMRHAMCCPGNYCKNGICVSSDQNHFRGEIEETITESFGNDHSTLDGYSRRTTLSSKMYHTKGQEGSVCLRSSDCASGLCCARHFWSKICKPVLKEGQVCTKHRRKGSHGLEIFQRCYCGEGLSCRIQKDHHQASNSSRLHTCQRH
With B1, the “Proportion of Nkx2.1 positive progenitors” value in experiment [7] (300 ng/ml Dkk, of all Nestin-positive cells) is on record as 29.0±2.0%. Also, the “Expression of Pax6 among progenitors” value in experiment [7] (Dkk 300 ng/ml, of Nestin-positive cells) is given as 23.7±1.4%.
